Measurements reported in patent US20070134355A1, “Use of plant parts of prickly pear (opuntia) and/or extracts therefrom for the treatment of depressions” (priority 2003, published 2007).
Several values for one entry are separate records, joined by “and”; a condition that tells them apart may be missing. Identical values can stand only once.

Tested on: rats
Test: forced swimming test in rats
Format: in vivo, rat
Conditions: percentage of inhibition against the control group
Description: The antidepressive efficacy has been tested by means of the so-called “forced swimming test” in rats. In this test rats are brought into an impasse during a defined period of five minutes (glass cylinder filled with water). In this test the rats reacted with a rigour referred to as immobilization time, which is interpreted to correlate with a depression. If the rats are treated with an antidepressively effective medicament prior to the test, the immobilization time decreases. Since other psychopharamaca such as anxiolytics or neuroleptics are not efficacious in this test, this test system is well suitable to detect antidepressive effects (R. D. Porsolt et al., Eur. J. Pharmacol. 47, 379-391 (1978); R. D. Porsolt et al., Adv. Pharmacol. Sci., 137-159 (1991)). In order to be efficacious, each of the heretofore known antidepressive agents has to be administered over a period of several days in this test, like in the case of patients. The test animals were treated either with the test substance or with a solvent only for control purposes or with the tricyclic antidepressive agent Imipramine in order to compare the efficacy. Imipramine was selected as the standard comparative substance, because it is one of the strongest antidepressive agents both in psychiatric practice and in animal model.
Tables 1 to 3 exemplarily show the efficacy of three different Opuntia extracts compared to the tricyclic antidepressive agent Imipramine as determined after a treatment period of 9 days. […] In this case, the inhibition was determined already after a treatment period of 3 days. For comparison purposes, the inhibition of the immobility was represented as the percentage of inhibition against the control group in each of the tables.

| Compound | Inhibition of immobility (dose 100 mg/kg, treatment period of 3 days) | Inhibition of immobility (dose 20 mg/kg, treatment period of 9 days) | Inhibition of immobility (dose 30 mg/kg, treatment period of 9 days, 30 mg/kg) |
| --- | --- | --- | --- |
| COc1ccc(C(CN(C)C)C2(O)CCCCC2)cc1 (stereo not drawn) [Venlafaxine] | 25% | – | – |
| CN(C)CCCN1c2ccccc2CCc2ccccc21 [Imipramine] | – | 44% | 64% and 68% |
